Test results taken from patent US8816078B2, “Acidic gas removal by aqueous amine solvents” (Board of Regents, The University of Texas System, priority 2010, dated 2014).
Where two headings read alike, the source gives them in different places.

Tests used:
[1] = for PCO2* at 40° C.: calculated from CO2 solubility curves
[2] = Cyclic CO2 capacity calculated from the regressed VLE model; format: physicochemical
[3] = Heat of CO2 absorption calculated from the VLE model; format: physicochemical
Experimental: VLE models of CO2 partial pressure were regressed from experimental data to calculate CO2 capacity and enthalpy of CO2 absorption (ΔHabs).
Heat of absorption was calculated from the model mentioned above by applying the following thermodynamic equation: […]
Heat of absorption was calculated from the model mentioned above by applying the Gibbs-Helmholtz equation: […]
The heat absorption of CO2 at a 1.5 kPa, which is an average CO2 partial pressure for lean and rich solutions, was calculated.

[4] = Freeman et al., 2009; cited from earlier work
[5] = Solubility and solids precipitation limits of amines in water; format: physicochemical
[6] = Solubility measurements of CO2 loaded PZ/1-MPZ/1,4-DMPZ blends; format: physicochemical
Experimental: Solubility measurements for CO2 loaded 3.9 m PZ/3.9 m 1-MPZ/0.2 m 1,4-DMPZ and 3.75 m PZ/3.75 m 1-MPZ/0.5 m 1,4-DMPZ solutions were taken to predict the solubility envelope of these blends. The solubility of the blends at varying loadings and temperatures are shown in FIG. 7 for the 3.9 m PZ/3.9 m 1-MPZ/0.2 m 1,4-DMPZ blend and in FIG. 8 for the 3.75 m PZ/3.75 m 1-MPZ/0.5 m 1,4-DMPZ blend. […] At 0° C., the 8 m blend: 3.75 m PZ/3.75 m 1-MPZ/0.5 m […] was soluble at 2° C. with a lean loading of 0.17 mol CO2/mol alkalinity, in contrast to 8 m PZ, which must be operated at loading above 0.3 to avoid solids precipitation.
A maximum CO2 loading of 0.41 and 0.39 was obtained for the 3.9 m PZ/3.9 m 1-MPZ/0.2 m 1,4-DMPZ blend and the 3.75 m PZ/3.75 m 1-MPZ/0.5 m 1,4 DMPZ blend respectively at room temperature without any solid precipitation. Intermediary loaded solutions were prepared by appropriately mixing the rich loaded and zero loaded solutions and observed at temperatures between 0° C. and the melting point of the solution.

[7] = 25° C.; cited from earlier work
[8] = CO2 Loading 0.035 mol/mole Alkalinity
[9] = CO2 Loading 0.037 mol/mole Alkalinity
[10] = CO2 Loading 0.102 mol/mole Alkalinity
[11] = CO2 Loading 0.104 mol/mole Alkalinity
[12] = CO2 Loading 0.156 mol/mole Alkalinity
[13] = CO2 Loading 0.158 mol/mole Alkalinity
[14] = CO2 Loading 0.209 mol/mole Alkalinity
[15] = CO2 Loading 0.217 mol/mole Alkalinity
[16] = CO2 Loading 0.251 mol/mole Alkalinity
[17] = CO2 Loading 0.266 mol/mole Alkalinity
[18] = CO2 Loading 0.303 mol/mole Alkalinity
[19] = CO2 Loading 0.313 mol/mole Alkalinity, listed as 8 m PZ
[20] = CO2 Loading 0.313 mol/mole Alkalinity, listed as 10 m PZ
[21] = CO2 Loading 0.330 mol/mole Alkalinity
[22] = Conc. (m): MDEA/PZ 7/2, PZ 8, MEA 7, HEP 7.7, AEP 6, 2-PE 8, AMP 4.8, EDA 12, DGA 10, PZ-MPZ 4/4, MPZ 8

In the case of `C1CNCCN1` [PZ, piperazine], the “PCO2* at 40° C.” value ([1]; CO2 Loading 0 mol/mole Alkalinity) is reported as 0.0014 kPa, the “Transition Temp” value ([1]; CO2 Loading 0 mol/mole Alkalinity, listed as 8 m PZ) is reported as 43.0 °C and the “Transition Temp” value ([1]; CO2 Loading 0 mol/mole Alkalinity, listed as 10 m PZ) is reported as 43 °C. The “Transition Temp” value [1, 8] was 40.0 °C, the “PCO2* at 40° C.” value [1, 8] was 0.0023 kPa and the “Transition Temp” value [1, 9] was 40.5 °C. For the same compound, the “PCO2* at 40° C.” value [1, 9] was 0.0023 kPa, the “Transition Temp” value [1, 10] was 38.5 °C and the “PCO2* at 40° C.” value [1, 10] was 0.0068 kPa. The “Transition Temp” value [1, 11] was 38.5 °C, the “PCO2* at 40° C.” value [1, 11] was 0.0070 kPa and the “Transition Temp” value [1, 12] was 35 °C. For the same compound, the “PCO2* at 40° C.” value [1, 12] was 0.0179 kPa, the “Transition Temp” value [1, 13] was 33.0 °C and the “PCO2* at 40° C.” value [1, 13] was 0.0185 kPa. The “Transition Temp” value [1, 14] was 26.5 °C, the “PCO2* at 40° C.” value [1, 14] was 0.0499 kPa and the “Transition Temp” value [1, 15] was 27 °C. For the same compound, the “PCO2* at 40° C.” value [1, 15] was 0.0589 kPa, the “Transition Temp” value [1, 16] was 18.0 °C and the “PCO2* at 40° C.” value [1, 16] was 0.1216 kPa. For the same compound, the “Transition Temp” value [1, 17] was 18 °C, the “PCO2* at 40° C.” value [1, 17] was 0.1679 kPa and the “Transition Temp” value [1, 18] was 3.0 °C. The “PCO2* at 40° C.” value [1, 18] was 0.3892 kPa, the “PCO2* at 40° C.” value [1, 19] was 0.4862 kPa and the “PCO2* at 40° C.” value [1, 20] was 0.4830 kPa. For the same compound, the “Transition Temp” value [1, 19] was 0 °C, the “Transition Temp” value [1, 20] was 5.5 °C and the “Transition Temp” value [1, 21] was 0 °C. For the same compound, the “PCO2* at 40° C.” value [1, 21] was 0.7252 kPa, the “CO2 loading needed to maintain an aqueous solution” value ([1]; room temperature (21° C.)) was 0.23 mole CO2 per mole alkalinity and the “highest CO2 loading usable without risk of solid precipitation” value ([1]; solvent at 0° C.) was no more than 0.4 moles CO2/equiv PZ. The “lowest CO2 loading usable without risk of solid precipitation” value ([1]; solvent at 0° C.) was no less than 0.3 moles CO2/equiv PZ, the “CO2 Capacity” value [2, 22] was 0.79 mol/kg (water + amine) and the “cyclic CO2 capacity” value ([2]; difference between lean and rich CO2 loading at 500 Pa and 5,000 Pa CO2 partial pressure) was 0.79 mol CO2/kg (water+amine). The “Heat of CO2 absorption (ΔHabs)” value ([3]; 8 m MPZ, 4 m PZ/4 m MPZ blend, 8 m PZ) was 16.7 kcal/mol, the “ΔHabs@PCO2 = 1.5 kPa” value [3, 22] was 16.7 kcal/mol and the “heat absorption of CO2” value ([3]; at 1.5 kPa CO2 partial pressure) was 16.7 kcal/mol. For the same compound, the “temperature up to which highly resistant to thermal degradation” value [4] was “up to 150 °C”, the oxidative degradation [5] was “resistant to oxidative degradation” and the “CO2 loading below which PZ.6 H2O solids precipitate” value ([5]; 0° C.) was “less than 0.3”. For the same compound, the “CO2 loading above which protonated piperazine carbamate precipitates” value ([5]; ambient temperature) was “greater than 0.45 moles/equivalent amine”, the solubility in water ([5]; zero CO2 loading, ambient temperatures, precipitation of PZ.6H2O) was “about 2 m” and the “CO2 loadings at which solid H+PZCOO−.H2O is formed” value [6] was no less than 0.43. The “loading above which the solvent must be operated to avoid solids precipitation” value ([6]; 0° C.) was “above 0.3”, the “CO2 loadings at which solid PZ.6H2O is formed” value ([6]; 25° C.) was no more than 0.22 and the solubility in water [7] was “less than 2 M”.
